According to patent US10202377B2, “3-(1H-benzo[D]imidazol-2-yl)-1H-pyrazolo[3,4-C]pyridine and therapeutic uses thereof” (Samumed, LLC, priority 2014, dated 2019):

What was measured:
[1] = tested on: primary human fibroblasts derived from IPF patients (LL29 cells); assay: Inhibition of fibrosis (αSMA staining) in TGF-β1-treated primary human fibroblasts from IPF patients; format: cell-based; conditions: Fibroblast, 96 h, TGF-β1 20 ng/mL, 4 days
In short: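 LL29 IPF fibroblasts in F12 with 1% FBS were stimulated with TGF-β1 (20 ng/mL) and incubated 4 days at 37 °C. SYTOX-positive dead cells were excluded, and αSMA-positive cells were counted by immunostaining as % of total. Values were normalized to TGF-β1/DMSO wells on the same plate, and EC50 derived.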

[2] = tested on: Wnt activity (Sp5-Luc reporter, SW480 colon carcinoma cells); assay: Sp5-Luc Wnt reporter gene screening assay in SW480 colon carcinoma cells; conditions: Homo sapiens
[3] = tested on: primary human mesenchymal stem cells (hMSCs); assay: Chondrogenesis induction in primary human mesenchymal stem cells (nodule imaging, Rhodamine B/Nile Red); format: cell-based; conditions: 6 days, dose at which the compound reached maximum chondrogenesis activity, dose range 10-2700 nM
Description: The above synthesized compounds were screened using primary human mesenchymal stem cells (hMSCs) to determine their ability to induce chondrogenesis (process by which cartilage is developed).
Human Mesenchymal Stem Cell Culture: Primary human mesenchymal stem cells (hMSCs) were purchased from Lonza (Walkersville, Md.) and expanded in Mesenchymal Stem Cell Growth Media (Lonza). Cells between passage 3 and 6 were used for the experiments.
Compound Screening: Each compound was dissolved in DMSO as a 10 mM stock and used to prepare compound source plates. Serial dilution (1:3, 6-point dose-response curves from 2700 nM to 10 nM) and compound transfer was performed using the ECHO 550 (Labcyte, Sunnyvale, Calif.) into 96-well clear bottom assay plates (Greiner Bio-One) with appropriate DMSO backfill for a final DMSO concentration of 0.03%. hMSCs were plated at 20,000 cells/well in 250 μL/well Incomplete Chondrogenic Induction Medium (Lonza; DMEM, dexamethasone, ascorbate, insulin-transferrin-selenium [ITS supplement], gentamycin-amphotericin [GA-1000], sodium pyruvate, proline and L-glutamine). TGF-β3 (10 ng/mL) was used as a positive control for differentiation while negative control wells were treated with 75 nL DMSO for normalization and calculating EC50 values. Cells were incubated at 37° C. and 5% CO2 for 6 days. To image chondrogenic nodules, the cells were fixed using 4% formaldehyde (Electron Microscopy Sciences), and stained with 2 μg/mL Rhodamine B (Sigma-Aldrich) and 20 μM Nile Red (Sigma-Aldrich) [Johnson K., et. al, A Stem Cell-Based Approach to Cartilage Repair, Science, (2012), 336(6082), 717-721]. The nodules imaged (4 images per well at 4× magnification) by excitation at 531 nm and emission at 625 nm and quantified using the CellInsight CX5 (Thermo Scientific). Number of nodules in each well was normalized to the average of 3 DMSO treated wells on the same plate using Excel (Microsoft Inc.). The normalized averages (fold change over DMSO) of 3 replicate wells for each compound concentration were calculated. Due to solubility limitations of some of the compounds, curve fitting was incomplete leading to inaccurate EC50 determinations.
Using TGF-β3 as a positive control, the concentration of test compounds required to induce equivalent levels of chondrogenesis is reported. In addition, the maximum activity of each compound and the respective dose that each compound reached maximum chondrogenesis activity is reported.

Structure (SMILES) | EC50 [1] | IC50 [2] | Conc (nM) of Max. activity [3]
CN1CCN(c2cccc3[nH]c(-c4n[nH]c5cnc(-c6cncc(N)c6)cc45)nc23)CC1 [Compound 211, 5-(3-(4-(4-Methylpiperazin-1-yl)-1H-benzo[d]imidazol-2-yl)-1H-pyrazolo[3,4-c]pyridin-5-yl)pyridin-3-amine] | 613 nM | 96.8 nM | 2700 nM
c1cncc(-c2cc3c(-c4nc5c(-c6cccnc6)cccc5[nH]4)n[nH]c3cn2)c1 [Compound 82, 5-(Pyridin-3-yl)-3-(4-(pyridin-3-yl)-1H-benzo[d]imidazol-2-yl)-1H-pyrazolo[3,4-c]pyridine] | 9 nM | 4.5 nM | 30 nM
CN(C)Cc1cncc(-c2cc3c(-c4nc5c(-c6cccc(F)c6)cccc5[nH]4)n[nH]c3cn2)c1 [Compound 13, 1-(5-(3-(4-(3-Fluorophenyl)-1H-benzo[d]imidazol-2-yl)-1H-pyrazolo[3,4-c]pyridin-5-yl)pyridin-3-yl)-N,N-dimethylmethanamine] | 9 nM | 19.1 nM | 300 nM
CC(C)C(=O)Nc1cncc(-c2cc3c(-c4nc5c(-c6ccsc6)cccc5[nH]4)n[nH]c3cn2)c1 [Compound 269, N-(5-(3-(4-(Thiophen-3-yl)-1H-benzo[d]imidazol-2-yl)-1H-pyrazolo[3,4-c]pyridin-5-yl)pyridin-3-yl)isobutyramide] | 49 nM | 4.2 nM | 900 nM
Nc1cncc(-c2cc3c(-c4nc5c(-c6ccccc6F)cccc5[nH]4)n[nH]c3cn2)c1 [Compound 55, 5-(3-(4-(2-Fluorophenyl)-1H-benzo[d]imidazol-2-yl)-1H-pyrazolo[3,4-c]pyridin-5-yl)pyridin-3-amine] | 9 nM | 19.5 nM | 900 nM
Cc1ccc(-c2cccc3[nH]c(-c4n[nH]c5cnc(-c6cncc(N)c6)cc45)nc23)s1 [Compound 367, 5-(3-(4-(5-Methylthiophen-2-yl)-1H-benzo[d]imidazol-2-yl)-1H-pyrazolo[3,4-c]pyridin-5-yl)pyridin-3-amine] | 9 nM | 3.5 nM | 30 nM
CC(C)Nc1cncc(-c2cc3c(-c4nc5c(-c6cc(F)cc(NCCN(C)C)c6)cccc5[nH]4)n[nH]c3cn2)c1 [Compound 454, N^1-(3-Fluoro-5-(2-(5-(5-(isopropylamino)pyridin-3-yl)-1H-pyrazolo[3,4-c]pyridin-3-yl)-1H-benzo[d]imidazol-4-yl)phenyl)-N^2,N^2-dimethylethane-1,2-diamine] | 117 nM | 51.6 nM | 300 nM
O=C(Nc1cncc(-c2cc3c(-c4nc5c(-c6cccs6)cccc5[nH]4)n[nH]c3cn2)c1)C1CC1 [Compound 331, N-(5-(3-(4-(Thiophen-2-yl)-1H-benzo[d]imidazol-2-yl)-1H-pyrazolo[3,4-c]pyridin-5-yl)pyridin-3-yl)cyclopropanecarboxamide] | 29 nM | 17.2 nM | 300 nM
CC(C)(C)C(=O)Nc1cncc(-c2cc3c(-c4nc5c(-c6ccc(F)cc6)cccc5[nH]4)n[nH]c3cn2)c1 [Compound 34, N-(5-(3-(4-(4-Fluorophenyl)-1H-benzo[d]imidazol-2-yl)-1H-pyrazolo[3,4-c]pyridin-5-yl)pyridin-3-yl)pivalamide] | 47 nM | 31.2 nM | 2700 nM
Fc1cccc(-c2cccc3[nH]c(-c4n[nH]c5cnc(-c6cn[nH]c6)cc45)nc23)c1 [Compound 939, 3-(4-(3-Fluorophenyl)-1H-benzo[d]imidazol-2-yl)-5-(1H-pyrazol-4-yl)-1H-pyrazolo[3,4-c]pyridine] | 9 nM | 25 nM | 30 nM
Cc1ccncc1-c1cc2c(-c3nc4c(-c5cc(F)cc(CNS(C)(=O)=O)c5)cccc4[nH]3)n[nH]c2cn1 [Compound 421, N-(3-Fluoro-5-(2-(5-(4-methylpyridin-3-yl)-1H-pyrazolo[3,4-c]pyridin-3-yl)-1H-benzo[d]imidazol-4-yl)benzyl)methanesulfonamide] | 9 nM | 10 nM | 100 nM
CN(C)Cc1cncc(-c2cc3c(-c4nc5c(N6CCCCC6)cccc5[nH]4)n[nH]c3cn2)c1 [Compound 169, N,N-dimethyl-1-(5-(3-(4-(piperidin-1-yl)-1H-benzo[d]imidazol-2-yl)-1H-pyrazolo[3,4-c]pyridin-5-yl)pyridin-3-yl)methanamine] | 9 nM | 28.3 nM | 900 nM
c1cncc(-c2cc3c(-c4nc5ccccc5[nH]4)n[nH]c3cn2)c1 [Compound 238, 3-(1H-Benzo[d]imidazol-2-yl)-5-(pyridin-3-yl)-1H-pyrazolo[3,4-c]pyridine] | 57 nM | 7.7 nM | 100 nM
CC(C)CC(=O)Nc1cncc(-c2cc3c(-c4nc5c(-c6ccoc6)cccc5[nH]4)n[nH]c3cn2)c1 [Compound 288, N-(5-(3-(4-(Furan-3-yl)-1H-benzo[d]imidazol-2-yl)-1H-pyrazolo[3,4-c]pyridin-5-yl)pyridin-3-yl)-3-methylbutanamide] | 9 nM | 6.8 nM | 10 nM
CC(=O)c1ccc(-c2cccc3[nH]c(-c4n[nH]c5cnc(-c6cncc(NC(=O)CC(C)C)c6)cc45)nc23)s1 [Compound 392, N-(5-(3-(4-(5-Acetylthiophen-2-yl)-1H-benzo[d]imidazol-2-yl)-1H-pyrazolo[3,4-c]pyridin-5-yl)pyridin-3-yl)-3-methylbutanamide] | 267 nM | 32.1 nM | 2700 nM
Cc1cn(-c2cccc3[nH]c(-c4n[nH]c5cnc(-c6cncc(NC(=O)CC(C)C)c6)cc45)nc23)cn1 [Compound 184, 3-Methyl-N-(5-(3-(4-(4-methyl-1H-imidazol-1-yl)-1H-benzo[d]imidazol-2-yl)-1H-pyrazolo[3,4-c]pyridin-5-yl)pyridin-3-yl)butanamide] | 277 nM | 55.1 nM | 30 nM
